Data: patent US20230152325A1, “Active Alpha-5-Beta-1 Integrin As A Biomarker For Enhancing Tumor Treatment Efficacy” (Institute For Cancer Research d/b/a The Research Institute …, priority 2016, published 2023)

Columns and labels:
[1] = tested on: naïve pancreatic fibroblasts cultured within D-ECM; assay: ECM prompted myofibroblastic maintenance (α-SMA / F-actin immunofluorescence), PDAC model; format: cell-based, human; conditions: PDAC; naïve fibroblasts plated in D-ECM in presence of the agent
Description: (§1) ECM prompted myofibroblastic maintenance. Human naïve or assorted murine fibroblasts were incubated for 45 minutes prior to overnight culturing within assorted ECMs, prepared as above, in the presence or absence of 50 μg/ml SNAKA51, 60 μg/m ALULA, 250 μg/m mAb16, or BMAS diluted as instructed by the manufacturer (Millipore, Temecula, Calif.), IgG control, DMSO or small molecule inhibitors FAK (PF573,228) and SRC family kinases (PP2). ECM-induced phenotypes were assessed via RT-qPCR, Western Blot or immunofluorescence.
(§2) Naïve/innate PDAC and RCC patient harvested fibroblasts were cultured overnight within normal (N-ECM) vs. desmoplastic (D-ECM or DECMs that were produced in the presence or absence of TGFβ1-receptor inhibition (D+TGFβi) or vehicle control (D+DMSO). Alternatively, naïve cells cultured within D-ECMs were treated with either TGFβ1-receptor inhibitor (TGFβ-i), vehicle (DMSO), functional blocking antibodies anti-αvβ5 integrin (alula, αvβ5-i), anti-α5β1 integrin (mAb16, α5β1-i), combinations of both functional blocking antibodies (β5-i+α5-i), functional stabilizing anti α5β1 integrin (SNAKA51; α5β1-act) or non-immunized isotypic antibodies (IgG). All samples were subjected to indirect immunofluorescent labeling of desmoplastic marker α-SMA and counterstained with fluorescently labeled phalloidin to detect actin stress fibers (F-actin) and determine the co-localization ratio. Monochromatic “heat map” images (see, FIG. 2A) represent α-SMA intensity values. A 255 tones intensity scale bar is shown to the right. A summary of all measured values is graphed in FIG. 2B. Additional monochromatic images indicative of double labeled staining for α-SMA and F-actin are in FIG. 2C while levels of total α-SMA localized at corresponding stress fibers are plotted in FIG. 2D. Untreated D-ECM conditions were included in all experiments summarized in this figure and serve as normalization (1 arbitrary unit; a.u.) controls. Matching values including statistical significances are listed in accompanying Table 1. All scale bars represent 50 μm. TGFβ activity was needed to maintain functional D-ECM production but was dispensable when testing D-ECM induced responses, while the later were obstructed by αvβ5 integrin inhibition or active α5β1 integrin stabilization.

[2] = tested on: naïve renal fibroblasts cultured within D-ECM; assay: ECM prompted myofibroblastic maintenance (α-SMA / F-actin immunofluorescence), RCC model; format: cell-based, human; conditions: RCC; naïve fibroblasts plated in D-ECM in presence of the agent
Description: as §1, §2

[3] = tested on: murine fibroblasts cultured in mD-ECM; assay: mD-ECM induced myofibroblastic activation of murine fibroblasts (stress fiber α-SMA); format: cell-based; conditions: wild type murine fibroblasts in mD-ECM (80% untreated)
Description: as §1
FIGS. 3A through 3H show FAK independent α5β1 integrin activity negatively regulates D-ECM-induced desmoplastic activation. […]

SMILES: CS(=O)(=O)c1cccc(CNc2nc(Nc3ccc4c(c3)CCC(=O)N4)ncc2C(F)(F)F)c1 [PF573,228]
- α-SMA expression levels relative to untreated conditions [1]: 17%
- α-SMA stress fiber localization levels [1]: 23.5%
- α-SMA expression levels relative to untreated conditions [2]: 70%
- α-SMA stress fiber localization levels [2]: 25%
- cells undergoing myofibroblastic activation [3]: 32%
